Results on two compounds are retold here after patent publication US20230099858A1, “PYRIDOPYRIMIDINE DERIVATIVES AS KRAS INHIBITORS” (BETA PHARMA, INC., priority 2020, published 2023).

The target of this experiment is T1, KRAS G12C (Homo sapiens, UniProt P01116, G12C).
T1 construct: aa 2-169, expressed in E. coli; His-tag (TEV cleavable) (N); purchased Reaction Biology Corporation (RBC); host or cells: E. coli
In words: KRAS G12C/SOS1 Nucleotide Exchange Assay (SOS1-mediated Bodipy-GDP to GTP exchange). Conditions: for IC50: substrate Bodipy-GDP/Kras G12C, 30 min pre-incubation at RT. Format: biochemical. On the procedure: Reaction Buffer: 40 mM HEPES 7.4, 10 mM MgCl2, 1 mM DTT 0.002% Triton X100, 0.1% DMSO (final).
In addition, the final assay volume was 15 μL.
Reaction Procedure: • 1. Deliver 10 uL of 1.5× KRAS solution in freshly prepared reaction buffer to reaction wells. • 2. Deliver compounds in 100% DMSO into buffer using acoustic technology (Echo550; nanoliter range). • 3. Incubate compounds with Kras for 30 minutes at room temperature. • 4. Prepare 3× (SOS1+GTP) solution in reaction buffer. • 5. Deliver 5 μL of SOS1+GTP solution into reactions wells (deliver GTP only to column 1 for no SOS1 control). • 6.
Data Analysis: The fluorescence data was normalized using the equation below and fitted to “one phase exponential decay” equation using GraphPad prism software. The plateau was fixed to zero (use for non-covalent inhibitors) and rate ×1000 was used to calculate the IC50 values. Alternatively, the plateau was unconstrained (for covalent inhibitors) and the span value was used to calculate the IC50 values.
where Yraw is defined as fluorescence at time t, Ao is the average initial fluorescence with no SOS1, and M is the minimum fluorescence at the end of the reaction at the maximum SOS1.
The background subtracted signals (no SOS1 protein wells were used as background) were converted to % activity relative to DMSO controls. Data was analyzed using GraphPad Prism 4 with “sigmoidal dose-response (variable slope)”; 4 parameters with Hill Slope. The constraints were bottom (constant equal to 0) and top (must be less than 1).

[1] abbreviates: plateau fixed to zero, rate x1000 used, read-out: IC50, Analysis Method: Rate Constant, KRAS G12C.

Structures can show the parent of a compound that is named as a salt. Where two headings read alike, the source gives them in different places.

T1 sequence (P01116 2-169 G12C): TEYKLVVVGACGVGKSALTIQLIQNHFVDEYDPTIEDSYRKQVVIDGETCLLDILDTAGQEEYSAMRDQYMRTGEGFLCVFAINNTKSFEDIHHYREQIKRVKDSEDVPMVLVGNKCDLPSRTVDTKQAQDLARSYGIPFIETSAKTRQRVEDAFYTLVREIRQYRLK

Regarding `C=CC(=O)N1CCN(c2nc(OCC3CCCN3C)nc3nc(-c4cccc5cccc(Cl)c45)ccc23)C[C@H]1C` (stereo partly drawn) [Example 1, 1-[(2R)-4-[7-(8-Chloronaphthalen-1-yl)-2-[(1-methylpyrrolidin-2-yl)methoxy]pyrido[2,3-d]pyrimidin-4-yl]-2-methylpiperazin-1-yl]prop-2-en-1-one], the inhibition at 10 µM (span analysis, no curve fit, highest concentration tested 10 μM, read-out: inhibition, printed in place of an IC50, Analysis Method: Span, KRAS G12C) is less than 65%. For the same compound, the 50% inhibitory concentration (IC50) under setting [1] came to 0.058 µM.
Turning to `C=CC(=O)N1CCN(c2nc(OC[C@@H]3CCCN3C)nc3nc(-c4cccc5cccc(Cl)c45)ccc23)C[C@@H]1CC#N` [Example 2, 2-((S)-1-Acryloyl-4-(7-(8-chloronaphthalen-1-yl)-2-(((S)-1-methylpyrrolidin-2-yl)methoxy)pyrido[2,3-d]pyrimidin-4-yl)piperazin-2-yl)acetonitrile trifluoroacetate (1:1)], the half-inhibitory concentration (IC50) by setting is: under setting [1], 0.008 µM; (plateau unconstrained, span value used (for covalent inhibitors), read-out: IC50, Analysis Method: Span, KRAS G12C) 0.025 µM.
